Measurements taken from patent US20060178307A1, “Modulation of NMDA receptor currents via orexin receptor and/or CRF receptor” (priority 2005, published 2006).
Entries after “also recorded” stand apart in the source; their conditions may differ. Where no end group is shown, it is not given here.

Assays:
[1] = system: NMDAR-mediated EPSCs in VTA dopamine neurons; experiment: Evoked NMDAR-mediated EPSCs, whole-cell voltage clamp at +40 mV, VTA neurons in midbrain slices; assay type: cell-based, rat; conditions: for effect on potentiation of NMDAR-mediated EPSCs by orexin A: inhibitor 100 μM in patch pipette; for effect on potentiation of NMDAR-mediated EPSCs by 100 nM orexin A: inhibitor 1 μM in patch pipette
Protocol: Excitatory postsynaptic currents (EPSCs) were recorded from VTA neurons in rat midbrain slices. EPSCs were evoked while holding neurons in voltage clamp at +40 mV. Measurements were taken 20 ms after the stimulus artifact, a time point at which the glutamatergic EPSC is mediated purely by NMDARs.
The patch pipette was loaded with the PLC inhibitor, U-73122 (1 μM, FIG. 2A, C, n=6) or the PKC inhibitor, chelerythrin (1 μM, FIG. 1A, B, n=6). […] Next, the protein kinase A inhibitor, PKI (20 μM, FIG. 2A, F, n=8) or Rp-cAMPs, a blocker of cAMP (100 μM, FIG. 2A, E, n=5) was added to the patch pipette.
Activation of PKC is implicated in NMDAR-dependent long-term potentiation (Malinow et al., 1989) and it modulates NMDAR trafficking to the membrane (Lan et al., 2001; Scott et al., 2001; Fong et al., 2002). NMDARs can translocate from intracellular or extrasynaptic pools to synaptic sites (Lan et al., 2001; Tovar and Westbrook, 2002). […] In a separate group of slices, orexin A (100 nM, n=6) was applied for 5 min during the washout period.
All of the electrophysiological recordings were performed in rats ranging from P21 to P30. Briefly, rats were anesthetized with halothane and sacrificed. Horizontal sections of the VTA ([…]) were prepared with a vibratome (Leica, Nussloch, Germany). Slices were placed in a holding chamber and allowed to recover for at least 1 hour before being placed in the recording chamber and superfused with bicarbonate-buffered solution (ACSF) saturated with 95% O2/5% CO2 and containing (in mM): 119 NaCl, 1.6 KCl, 1.0 NaH2PO4, 1.3 MgCl2, 2.5 CaCl2, 26.2 NaHCO3 and 11 glucose (at 32-34° C.). Picrotoxin (100 μM) was added to block GABAA receptor-mediated inhibitory postsynaptic currents. Cells were visualized using infrared differential interference contrast video microscopy. Whole-cell voltage clamp recordings were made using an Axopatch 1D amplifier (Axon Instruments, Union City, Calif.). Electrodes (2.8-4.0 MΩ) contained (in mM): 120 Cesium Methansulfonate, 20 HEPES, 0.4 EGTA, 2.8 NaCl, 5 TEA-Cl, 2.5 MgATP, and 0.25 NaGTP, pH 7.2-7.3 (270-285 mOsm). Series resistance (10-40 MΩ) and input resistance were monitored on-line with a 4-mV depolarizing step (50 ms) given just after every afferent stimulus. Dopaminergic VTA neurons were identified by the presence of a large Ih current (Lacey et al., 1990; Johnson and North, 1992) and, in some cases, tyrosine hydroxylase labeling. A bipolar stimulating electrode was placed 100-300 μm rostral to the recording electrode and was used to stimulate excitatory afferents at 0.1 Hz. Neurons were voltage-clamped at −70 mV and +40 mV to record AMPAR- and NMDAR-mediated EPSCs.

AMPAR mEPSCs = experiment: AMPAR-mediated miniature EPSCs (mEPSCs) in VTA neurons; assay type: cell-based, rat; conditions: APV 50 μM 3 min prior and during orexin application
Protocol: Next, to investigate whether AMPAR function and/or number was modified with orexin A treatment, AMPAR-mediated miniature EPSCs (mEPSCs) were examined (a standard method for determining the locus of synaptic change). Compared to untreated neurons, orexin A (100 nM) caused a significant increase in both amplitude (FIG. 6C,D,F) and frequency (FIG. 6C,E,G) 3-4 hours after application (24±1.6 pA; 2.4±0.5 Hz; n=7 vs control: 13±1.3 pA; 0.93±0.16 Hz; n=7; FIG. 6A), but not at 15 min (15±1.7 pA; 0.9±0.1 Hz; n=[…], FIG. 6B).
AMPAR mEPSCs were recorded in cells voltage-clamped at −70 mV in lidocaine (500 μM), APV (50 μM) and sucrose (100 mM). NMDAR mEPSCs were recorded at −40 mV in Mg2+-free external solution with lidocaine (500 μM), glycine (20 μM), and CNQX (10 μM). mEPSCs were collected using Clampex (Axon Instruments) and analyzed using Mini Analysis Program (Synaptosoft). Detection criteria were set at >10 pA, <1 ms rise-time, and <3 ms decay-time for AMPAR mEPSCs and >10 pA, <1 ms rise-time, and <10 ms decay-time for NMDAR mEPSCs. mEPSC traces were recorded while sampling every 10 μs, the images were filtered at 5 kHz. Averaged mEPSCs were constructed using Mini Analysis Program (Synaptosoft).

[2] = system: NMDAR-mediated currents in VTA dopamine cells; experiment: CRF-related peptides on NMDAR-mediated currents at excitatory synapses onto VTA dopamine cells; assay type: cell-based; conditions: mammalian brain
[3] = system: AMPAR/NMDAR ratio of EPSCs in VTA dopamine cells; experiment: AMPAR/NMDAR ratio in VTA slices 24 hr after 5-day in vivo treatment; set-up: species or system rat; conditions: cocaine 15 mg/kg, 5-day treatment, n=4
Protocol: The next study investigated whether orexin signaling in the VTA is required for the long-term plasticity associated with the development of behavioral sensitization. Long-term synaptic plasticity at excitatory synapses on VTA neurons was examined 24 hr after a 5-day treatment of cocaine (15 mg/kg) or saline (0.9%), a time course shown to induce long-lasting locomotor sensitization to cocaine (Thomas et al., 2001), with or without the OXR1 antagonist, SB 334867 (10 mg/kg, FIG. 5). To assay for synaptic plasticity, the relative contributions of AMPARs and NMDARs to EPSCs recorded in VTA dopamine cells were compared. Consistent with the potentiation observed following acute and 7-day cocaine treatments (Borgland et al., 2004), 5-day treatment with cocaine potentiated the AMPAR/NMDAR ratio compared to saline controls (FIG. 5A, saline: 0.4±0.07, n=4; cocaine: 0.8±0.1, n=4, p<0.05). This potentiation of synaptic plasticity was blocked by 5-day treatment with the OXR1 antagonist, SB 334867, administered 15 min prior to cocaine or saline (FIG. 5A, saline+SB334867: 0.4±0.02, n=5 vs. cocaine+SB334867: 0.5±0.08, n=11, p>0.05). Since OXR1 antagonists block cocaine-mediated potentiation of the AMPAR/NMDAR ratio, orexin A may either facilitate cocaine-mediated synaptic plasticity or enhance synaptic transmission itself. A 5-min orexin A application was performed to determine whether this caused changes in AMPAR/NMDAR ratio either 15 min or 3-4 hours after application (FIG. 5B).
To calculate the AMPAR/NMDAR ratio, an average of 12 EPSCs at +40 mV was computed before and after application of the NMDAR blocker, AP5 (50 μM) for 5 min. NMDAR responses were calculated by subtracting the average response in the presence of AP5 (AMPAR only) from that seen in its absence; the peak of the AMPAR EPSC was divided by the peak of the NMDAR EPSC to yield an AMPAR/NMDAR ratio.
Male Sprague-Dawley Rats (P21-P30; Charles River, N.C.) were singly housed with food and water available ad libitum. A 12 hr light/dark cycle was used, with the lights on at 7:00 A.M. All cocaine injections and behavioral testing were performed during the light cycle for consecutive days. The four treatment groups consisted of rats given 5 daily i.p. injections of SB 334867 (10 mg/kg) 15 min preceding i.p. injection of cocaine (15 mg/kg) or saline (0.9% NaCl), or i.p. injections of vehicle (10% DMSO and 25% β-hydroxy cyclodextrin in saline) 15 min preceding i.p. injection of cocaine or saline. […] Locomotor activity was measured in 17″×17″ chambers lined with three 16-beam I/R arrays. […] Distance traveled was measured using Open Field Activity Software (Med Associates, Inc) and analyzed for estimates of locomotion based on the movement of a given distance and resting delay (movement in a given period of time).

locomotor activity [4] = experiment: Locomotor sensitization to cocaine, intra-VTA OXR1 antagonist, 7-day paradigm; assay type: in vivo, Sprague-Dawley rats; conditions: control animals: intra-VTA vehicle + cocaine 15 mg/kg
Protocol: Male Sprague-Dawley rats (250 grams) were implanted with bilateral cannulae directed at the VTA (AP, −5.2; ML, ±0.5, DV −8.0). Following recovery from surgery, animals were tested in a cocaine sensitization assay similar to that used for systemic administration of the OXR1 antagonist, but with two changes: a 7-day sensitization paradigm was used, and the OXR1 antagonist SB 334867 was microinjected directly into the VTA (6 μg/hemisphere in 300 nL solution composed of 10% DMSO in water). All other methods for habituation and data collection were identical to that described above. Rats were deeply anesthetized with pentobarbital, and perfused with a 10% formaldehyde solution. Brains were cryoprotected in 25% sucrose, 40 μm coronal sections were cut on a freezing microtome, and sections were mounted, dried and coverslipped. Injection sites were located under a light microscope and recorded on atlas figures adapted from Paxinos and Watson (1997).

locomotor activity [5] = experiment: Locomotor sensitization to cocaine, i.p. OXR1 antagonist, open field; assay type: in vivo, Sprague-Dawley rats; conditions: n=13
Protocol: To determine if orexin signaling plays a role in behavioral sensitization to cocaine, either the OXR1 antagonist SB 334867 (10 mg/kg, i.p.) or vehicle was injected 15 min prior to injecting cocaine (15 mg/kg, i.p) or saline (0.9%), and then the rats were placed in an open field chamber to measure locomotor activity for 1 hour each day for 5 days.
Therefore, to determine if expression of cocaine sensitization requires release of orexin acting at the OXR1 receptor, the OXR1 antagonist SB 334867 (10 mg/kg) was injected with cocaine (15 mg/kg) on day 6 into either cocaine-sensitized or saline-treated rats.
Male Sprague-Dawley Rats (P21-P30; Charles River, N.C.) were singly housed with food and water available ad libitum. A 12 hr light/dark cycle was used, with the lights on at 7:00 A.M. All cocaine injections and behavioral testing were performed during the light cycle for consecutive days. The four treatment groups consisted of rats given 5 daily i.p. injections of SB 334867 (10 mg/kg) 15 min preceding i.p. injection of cocaine (15 mg/kg) or saline (0.9% NaCl), or i.p. injections of vehicle (10% DMSO and 25% β-hydroxy cyclodextrin in saline) 15 min preceding i.p. injection of cocaine or saline. All animals were habituated to the photocell boxes (Med Associates, St. Albans, Vt.) for 2 hours prior to the start of the experiment. All animals were further habituated to the photocell boxes for 30 min prior to 60 min testing session. Locomotor activity was measured in 17″×17″ chambers lined with three 16-beam I/R arrays. A 50 ms scanning rate was used for measurement of beams broken. Distance traveled was measured using Open Field Activity Software (Med Associates, Inc) and analyzed for estimates of locomotion based on the movement of a given distance and resting delay (movement in a given period of time).

C[C@H](NC(c1cccc2[nH]c(=O)c(=O)[nH]c12)P(=O)(O)O)c1ccc(Br)cc1 (stereo partly shown) [NVP-AAM077]
remaining current ([1]; NVP-AAM077 0.4 μM applied during peak increase induced by 100 nM orexin A, n=6): 87±11%
effect on expression of orexin A-mediated potentiation of NMDAR EPSCs ([1]; NVP-AAM077 0.4 μM applied during peak of potentiation): blocked; also recorded: reversed
effect on ability of 100 nM orexin A to potentiate NMDAR EPSCs ([1]; NVP-AAM077 0.4 μM pre-applied): significantly reduced
inhibition of NMDAR EPSCs ([1]; bath application 0.4 μM, n=6): 54±7%

N[C@H](CCCP(=O)(O)O)C(=O)O [APV, D (−)-2-Amino-5-phosphonopentanoic acid]
effect on orexin A-induced increase in AMPAR mEPSC amplitude at 3-4 hours (AMPAR mEPSCs): significantly reduced; also recorded: blocked

Urocortin: may be the endogenous CRF-R2 ligand and also binds CRF-BP (DNPSLSIDLTFHLLRTLLELARTQSQRERAEQNRIIFDSV; ends and bridges not checked; UniProt P55089 83-122, looked up)
potentiation of NMDAR currents [2]: mimics CRF

Nc1ncnc2c1ncn2[C@@H]1O[C@@H]2CO[P@@](O)(=S)O[C@H]2[C@H]1O [Rp-cAMPs]
effect on potentiation of NMDAR-mediated EPSCs by orexin A ([1]; n=5): robust potentiation
effect on potentiation of NMDAR-mediated EPSCs by orexin A ([1]; n=5, listed as Rp-cAMPS): did not block

CC(C(O)c1ccc(O)cc1)N1CCC(Cc2ccccc2)CC1 (stereo not shown) [ifenprodil]
remaining current after application ([1]; bath-applied 3 μM): 71±6%
effect on orexin A-mediated potentiation of NMDAR EPSCs ([1]; ifenprodil 3 μM bath-applied): no significant effect; also recorded: not affected

COc1ccc2c(c1)CC[C@@H]1[C@@H]2CC[C@]2(C)[C@@H](NCCCCCCN3C(=O)C=CC3=O)CC[C@@H]12 [U-73122]
effect on potentiation of NMDAR-mediated EPSCs by 100 nM orexin A ([1]; n=6): completely blocked
effect on potentiation of NMDAR-mediated EPSCs by 100 nM orexin A ([1]; n=6, listed as U73122): blocked

ovine CRF: CRF form that does not bind CRF-BP (SQEPPISLDLTFHLLREVLEMTKADQLAQQAHSNRKLLDIA; ends and bridges not checked; UniProt P01142 148-188, looked up)
potentiation of NMDAR currents [2]: do not potentiate

COc1ccc2c(c[n+](C)c3c4cc5c(cc4ccc23)OCO5)c1OC [chelerythrin]
effect on potentiation of NMDAR-mediated EPSCs by 100 nM orexin A ([1]; n=6): completely blocked

[Zn+2] [Zn^2+]
inhibition of NMDAR EPSCs ([1]; 100 nM, n=6): 13±8%
inhibition of NMDAR EPSCs ([1]; 300 nM, n=5): 29±9%
effect on orexin A-mediated potentiation of NMDARs ([1]; Zn2+ 300 nM): significantly reduced; also recorded: mostly blocked

O=C(O)C1NCCN(C(=O)c2ccc3c(ccc4ccccc43)c2)C1C(=O)O (stereo not shown) [PPDA, 1-(phenantrene-2carbonyl) piperazine-2,3-dicarboxylic acid]
additional inhibition of NMDAR EPSCs ([1]; 1 μM on top of NVP-AAM077 and ifenprodil): 10%
effect on orexin A (100 nM)-mediated NMDAR potentiation ([1]; PPDA 1 μM after co-application of NVP-AAM077 and ifenprodil): blocked
remaining current ([1]; PPDA 1 μM with NVP-AAM077 and ifenprodil, n=6): 14±2.2%

Urocortin II: peptide that does not bind CRF-BP (IVLSLDVPIGLLQILLEQARARAAREQATTNARILARVGHC; ends and bridges not checked; UniProt Q96RP3 72-112, looked up)
potentiation of NMDAR currents [2]: do not potentiate

COC(=O)[C@H]1[C@@H](OC(=O)c2ccccc2)C[C@@H]2CC[C@H]1N2C [cocaine]
AMPAR/NMDAR ratio [3]: 0.8±0.1
mean locomotor distance on day 7 (locomotor activity [4]): 34162±4477 cm
distance traveled on day 5 (locomotor activity [5]; cocaine-only-treated rats, 15 mg/kg i.p.): 20347±5643 cm
locomotor activity on day 1 (locomotor activity [5]; cocaine-treated rats given vehicle): 5692±1579 cm
